Data on twelve molecules can be found in patent US8022052B2, “Inhibition of PPAR gamma expression by specific osteogenic oxysterols” (The Regents of the University of California, priority 2006, dated 2011).

“Also recorded” adds a separate entry of the source. Read-outs that look alike come from different tables or passages of the source.

Experiment [1] has as its system M2-10B4 (M2) murine pluripotent bone MSC line. As to the kind of experiment: Tro-induced adipocyte formation in M2 cells, Oil red O staining. Format: cell-based, mouse. Particulars: for inhibition of Tro-induced adipocyte formation: M2 cells, oxysterol 5 μM. The method, then:
(§1) M2 mouse MSCs were purchased from American Type Culture Collection (ATCC, Rockville, Md., USA). […] Cell culture was performed in 24- and 6-well plates for adipogenic differentiation and gene expression studies, respectively, and treatment with test agents was done in growth medium.
Oil red O staining for detection of adipocytes was performed as previously described. […] The number of adipocytes was quantitated by counting Oil red O-positive cells in five separate fields per well, in three wells per experimental condition. The results are reported as the mean of triplicate determination ±SD.
(§2) Adipocyte formation was examined by Oil red O staining. […] PPARγ expression was assessed by RT-qPCR after treating M2 cells with Tro in the presence or absence of 20S. […] M2 cells at confluence were treated with control vehicle, 10 μM Tro, or 5 μM 20S, alone or in combination for 24 hours (FIG. 2A), 48 hours (FIG. 2B), and 96 hours (FIG. 2C). PPARγ mRNA expression was measured by quantitative real-time PCR.
(§3) After 10 days, adipocyte formation was measured by Oil red O staining. The number of adipocytes was determined by counting Oil red O-positive cells in five separate fields per well, in three wells per experimental condition. […] After 48 h, PPARγ mRNA expression was measured by quantitative real-time PCR. […] Luciferase activity was measured after 24 h and normalized for transfection efficiency using the Renilla luciferase activity.
Synthetic oxysterol compounds were studied for inhibition of adipogenesis and PPAR expression. […] After 10 days of treatment, cells were stained with Oil-red-O to detect adipocytes, and the number of positively stained cells was determined using light microscopy. Data from a representative experiment are reported as the mean of triplicate determination (average of five fields per well, 3 wells per experimental condition) ±SD.

For experiment [2] the test system is unchanged. Particulars: cited from earlier work.
The subject of the next experiment is M2 cells. In words: 45Ca incorporation assay measuring mineralization in M2 cells. Format: cell-based. An excerpt: One aspect of the invention is an oxysterol (e.g. an isolated oxysterol) of the invention as represented by Formula I, above. For example, the compounds designated as Oxy 7, Oxy 9, Oxy11, Oxy12, Oxy13, Oxy 14, and Oxy 15 can stimulate at least a measurable amount of a hedgehog-mediated pathway and/or osteomorphogenesis or osteoproliferation (or a marker thereof), and/or can inhibit at least a measurable amount of adipocyte morphogenesis or adipocyte proliferation (or a marker thereof). Oxy 3 and Oxy 4 can act as enhancers of activity in combination with other oxysterols.

Another experiment concerns PPARγ. As to the kind of experiment: PPARγ mRNA expression in M2 cells by RT-qPCR. Format: cell-based, mouse. The settings on record: for reversal of the inhibitory effect of 20S on Tro-induced PPARγ expression: signaling inhibitor. The method, then: as §1
(§4) Total RNA was extracted with the RNA isolation kit from Stratagene (La Jolla, Calif., USA) according to the manufacturer's instructions. RNA was DNase-treated using DNA-free kit from Ambion (Austin, Tex., USA). Three micrograms of RNA was reverse-transcribed using reverse transcriptase from Stratagene to make single-stranded cDNA. The cDNA was mixed with Qi SYBR Green Supermix (Bio-Rad) for quantitative RT-PCR assay using a Bio-Rad I-cycler IQ quantitative thermocycler. All PCR samples were prepared in triplicate wells of a 96-well plate. After 40 cycles of PCR, melt curves were examined to ensure primer specificity. Fold changes in gene expression were calculated using the ΔΔCt method. […] Primers used are as follows: PPARγ2 (5′-[…]-3′ and 5′-[…]-3′), C/EBPα (5′-[…]-3′ and 5′-[…]-3′), ap2 (5′-[…]-3′ and 5′-[…]-3′), LPL (5′-[…]-3′ and 5′-[…]-[…]), GATA2 (5′-[…]-3′ and 5′-[…]-3′), GATA3 (5′-[…]-3′ and 5′-[…]-3′), GILZ (5′-[…]-3′ and 5′-[…]-3′), and pref-1 (5′-[…]-3′ and 5′-[…]-3′).
as §2, §3
After 48 hours of treatment, RNA was extracted from cells and analyzed for PPARγ expression by Q-RT-PCR. Data from a representative experiment, normalized to GAPDH expression, are reported as the mean of triplicate determinations ±SD.
A general note: Real-time PCR tracks product formation cycle by cycle.

In another experiment the test system is aP2. In words: aP2 mRNA expression in M2 cells by quantitative real-time PCR. Format: cell-based, mouse. The settings on record: cyclopamine, data not shown. The method, then: . M2 cells at confluence were treated with control vehicle, 10 μM Tro, or 5 μM 20S, alone or in combination for 24 hours (FIG. 4A), 48 hours (FIG. 4B), and 96 hours (FIG. 4C). aP2 mRNA expression was measured by quantitative real-time PCR. Fold changes in gene expression relative to the control were calculated using the ΔΔCt method and reported as the mean of triplicate determination ±SD (p<0.0001 for Tro or Tro+20S vs. control or 20S and p<0.01 for Tro vs. Tro+20S at 24 hours (FIG. 4A); p<0.0001 for Tro or Tro+20S vs. control or 20S and for Tro vs. Tro+20S at 48 hours (FIG. 4B); p<0.0001 for Tro vs. control, 20S, or Tro+20S and p<0.001 for Tro+20S vs. control or 20S at 96 hours (FIG. 4C)).

The subject of a further experiment is LPL. Particulars: cyclopamine, data not shown.
From the text: as §4

In the case of `CC(C)CCCC[C@](C)(O)C1CCC2C3CC=C4C[C@@H](O)CC[C@]4(C)C3CC[C@@]21C` (stereo partly drawn) [Oxy12, (3S,8S,9S,10R,13S,14S,17S)-2,3,4,7,8,9,10,11,12,13,14,15,16,17-tetradecahydro-17-((S)-2-hydroxy-7-methyloctan-2-yl)-10,13-dimethyl-1H-cyclopenta[α]phenanthren-3-ol], the “inhibition of Tro-induced adipocyte formation” value in experiment [1] (10 μM Tro, 10 days) is reported as “inhibitory effect”. For `CC(C)CC[C@H](O)[C@@H](C)[C@H]1CC[C@H]2[C@@H]3CC=C4C[C@@H](O)CC[C@]4(C)[C@H]3CC[C@]12C` [Oxy 22S, 22(S)-hydroxycholesterol], in experiment [2], the “adipogenic differentiation of M2 cells (previously reported)” value was “inhibit”.

Turning to `CC[C@H](O)[C@@H](C)C1CCC2C3CC=C4C[C@@H](O)CC[C@]4(C)C3CC[C@@]21C` (stereo partly shown) [Oxy 3], in the experiment on M2 cells, the “incorporation of 45Ca in combination with 20(S)-hydroxycholesterol over 20(S)-hydroxycholesterol alone” value was “enhance”. Turning to `CC(C)=CCC[C@](C)(O)C1CCC2C3CC=C4C[C@@H](O)CC[C@]4(C)C3CC[C@@]21C` (stereo partly shown) [Oxy14], in experiment [1] (10 μM Tro, 10 days), the “inhibition of Tro-induced adipocyte formation” value is “inhibitory effect”. For `C=C(C)CCC[C@](C)(O)C1CCC2C3CC=C4C[C@@H](O)CC[C@]4(C)C3CC[C@@]21C` (stereo partly shown) [Oxy13], the “inhibition of Tro-induced adipocyte formation” value in experiment [1] (10 μM Tro, 10 days) is reported as “inhibitory effect”. For the same molecule, the “inhibition of Tro-induced PPARγ mRNA expression” value in the experiment with PPARγ (M2 cells, 10 μM Tro, oxysterol 5 μM, 24, 48, 96 h (20S), 48 h (Oxy13)) is given as “inhibits”.

Turning to `Cc1cccc(C[C@](C)(O)C2CCC3C4CC=C5C[C@@H](O)CC[C@]5(C)C4CC[C@@]32C)c1` (stereo partly shown) [Oxy11], the “inhibition of Tro-induced adipocyte formation” value in experiment [1] (10 μM Tro, 10 days) is listed as “inhibitory effect”. As to `CC(C)CC[C@@H](O)[C@@H](C)[C@H]1CC[C@H]2[C@@H]3CC=C4C[C@@H](O)CC[C@]4(C)[C@H]3CC[C@]12C` [Oxy 22R, 22(R)-hydroxycholesterol], in experiment [2], the “adipogenic differentiation of M2 cells (previously reported)” value is reported as “inhibit”. As for `CC(C)CC[C@@H](O)[C@](C)(O)C1CCC2C3CC=C4C[C@@H](O)CC[C@]4(C)C3CC[C@@]21C` (stereo partly shown) [Oxy16], in experiment [1] (10 μM Tro, 10 days), the “inhibition of Tro-induced adipocyte formation” value is listed as “inhibitory effect”.

For the molecule `COc1cccc(-c2cc(=O)c3ccccc3o2)c1N` [PD98059], in experiment [1] (10-day M2 cultures, Cyclopamine 4 μM, Dkk-1 1 μg/mL, PD98059 20 μM), the “reversal of the inhibitory effects of 20S on Tro-induced adipocyte formation” value is given as 50%. Also, in the experiment on PPARγ (M2 cells), the “reversal of the inhibitory effect of 20S on Tro-induced PPARγ expression” value was 45%. In the case of `CC1=C2C[C@H]3[C@@H](CC=C4C[C@@H](O)CC[C@@]43C)[C@@H]2CC[C@]12O[C@@H]1C[C@H](C)CN[C@H]1[C@H]2C` [cyclopamine], in experiment [1], the “reversal of the inhibitory effects of 20S on Tro-induced adipocyte formation” value amounted to 70% and the “reversal of the inhibitory effects of Shh on Tro-induced adipocyte formation” value is on record as 100%. Moreover, the “reversal of the anti-adipogenic effects of 20S (in words)” value in experiment [1] (4 μM cyclopamine 2-h pretreatment, 10 μM Tro, 5 μM 20S, 10 days) is on record as “reversed; also recorded: blocks; also recorded: did not completely reverse”. For the same molecule, the “reversal of the anti-adipogenic effects of Shh (in words)” value in experiment [1] (cyclopamine 2-h pretreatment, 10 μM Tro, 200 ng/mL Shh, 10 days) is “completely reversed; also recorded: blocks”. Besides, in experiment [1] (cyclopamine from 4 to 8 μM, Tro+20S, data not shown), the “additional effect on adipocyte formation of increasing the dose of cyclopamine” value was “did not have any additional effect”. In addition, in the experiment on PPARγ, the “reversal of the inhibitory effect of 20S on Tro-induced PPARγ mRNA expression (in words)” value is listed as “fully reversed; also recorded: completely abolished; also recorded: blocks; also recorded: completely blocked” and the “reversal of the inhibitory effect of Shh on Tro-induced PPARγ mRNA expression (in words)” value is given as “fully reversed; also recorded: completely abolished; also recorded: blocks; also recorded: completely reversed; also recorded: completely blocked”. In addition, the “reversal of the inhibitory effects of 20S on aP2 expression” value in the experiment on aP2 is on record as “reversed”. In addition, in the experiment with LPL, the “reversal of the inhibitory effects of 20S on LPL expression” value is recorded as “reversed”. Turning to `C[C@H](O)[C@@H](C)C1CCC2C3CC=C4C[C@@H](O)CC[C@]4(C)C3CC[C@@]21C` (stereo partly shown) [Oxy4], the “incorporation of 45Ca in combination with 20(S)-hydroxycholesterol over 20(S)-hydroxycholesterol alone” value in the experiment with M2 cells is listed as “enhance”.

B1: Dkk-1: canonical Wnt signaling inhibitor (protein, UniProt O94907 32-266, looked up)
Dickkopf-related protein 1: TLNSVLNSNAIKNLPPPLGGAAGHPGSAVSAAPGILYPGGNKYQTIDNYQPYPCAEDEECGTDEYCASPTRGGDAGVQICLACRKRRKRCMRHAMCCPGNYCKNGICVSSDQNHFRGEIEETITESFGNDHSTLDGYSRRTTLSSKMYHTKGQEGSVCLRSSDCASGLCCARHFWSKICKPVLKEGQVCTKHRRKGSHGLEIFQRCYCGEGLSCRIQKDHHQASNSSRLHTCQRH
As for B1, the “reversal of the inhibitory effect of 20S on Tro-induced PPARγ expression” value with PPARγ (M2 cells) is reported as 10%.
